# Test results taken from patent US10975068B2, “6-aminopyridin-3-yl thiazoles as modulators of RORγT” (Janssen Pharmaceutica NV, priority 2016, dated 2021).
# Like-named read-outs stand apart in the source and are kept apart here.
# How the values were obtained:
# full-length human RORγt = full-length human RORγt (Homo sapiens (Human), UniProt P51449); assay: RORγt (full-length human) reporter assay, Conditions B or C; assay type: cell-based; conditions: for inhibition at 0.3 µM: at 0.3 μM compound concentration; for inhibition at 0.3 µM / inhibition at 3 µM: read-out: RORγt (FL) Reporter Assay B or C, % inhibition; for IC50: read-out: RORγt (FL) Reporter Assay B or C, IC50; for inhibition at 3 µM: at 3 μM compound concentration; for RORγt (FL) Reporter Assay B or C, % inhibition (value marked *): marked *: footnote not given
# Procedure, shortened: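 HEK293T cells transiently co-transfected with GAL4-DBD–full-length human RORγt (nt 142-1635, NM_001001523.1) plus GAL4-firefly and CMV-Renilla luciferase reporters; compounds added 4-6 h post-transfection for 16-20 h in 1.3% FBS, 0.1% DMSO. Firefly signal normalized to DMSO and saturating reference compound, then to Renilla; IC50 from concentration plots.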
# [1] = target: human RORγt ligand binding domain (RORγt LBD) (Homo sapiens (Human), UniProt P51449); assay: RORγt ThermoFluor® assay (thermal shift binding); conditions: read-out: ThermoFluor® Assay, Kd
# Procedure, shortened: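 His-tagged human RORγt LBD (0.065 mg/mL) with 60 μM 1,8-ANS in 100 mM Hepes pH 7.0, 10 mM NaCl, 2.5 mM GSH, 0.002% Tween-20 was heated at 1 °C/min.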
# full-length human RORγt, sequence (P51449 other isoform, or with tags, fused parts or gaps): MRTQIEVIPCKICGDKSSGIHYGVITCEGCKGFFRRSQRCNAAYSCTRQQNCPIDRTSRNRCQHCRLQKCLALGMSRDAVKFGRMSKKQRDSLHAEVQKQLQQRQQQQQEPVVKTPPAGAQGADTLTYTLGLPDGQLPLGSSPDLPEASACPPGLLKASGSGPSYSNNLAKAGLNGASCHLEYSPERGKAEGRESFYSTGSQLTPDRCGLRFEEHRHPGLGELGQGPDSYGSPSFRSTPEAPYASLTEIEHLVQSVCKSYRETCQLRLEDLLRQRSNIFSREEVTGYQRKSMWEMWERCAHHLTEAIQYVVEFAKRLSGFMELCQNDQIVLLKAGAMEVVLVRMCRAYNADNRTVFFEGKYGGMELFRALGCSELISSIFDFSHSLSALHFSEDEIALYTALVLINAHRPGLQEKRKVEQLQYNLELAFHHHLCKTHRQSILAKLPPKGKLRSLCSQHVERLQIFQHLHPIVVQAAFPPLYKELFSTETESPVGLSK
# human RORγt ligand binding domain (RORγt LBD), sequence (P51449 other isoform, or with tags, fused parts or gaps): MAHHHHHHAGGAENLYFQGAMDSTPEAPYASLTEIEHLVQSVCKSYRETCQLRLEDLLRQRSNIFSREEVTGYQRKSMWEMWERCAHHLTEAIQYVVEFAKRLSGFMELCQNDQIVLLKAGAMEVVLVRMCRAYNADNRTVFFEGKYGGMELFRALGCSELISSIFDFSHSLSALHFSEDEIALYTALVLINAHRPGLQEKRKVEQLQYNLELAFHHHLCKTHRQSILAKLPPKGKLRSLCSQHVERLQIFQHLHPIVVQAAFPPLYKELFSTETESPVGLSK
"RORγt (FL) Reporter Assay B or C, % inhibition (value marked *) (full-length human RORγt; Conditions B or C)",IC50 (full-length human RORγt; Conditions B or C) [nM],SMILES,inhibition at 0.3 µM (full-length human RORγt) [%],IC50 (full-length human RORγt) [nM],Kd [1] [nM],inhibition at 3 µM (full-length human RORγt) [%]
,,"C[C@H]1CCCN1C(=O)c1nc(C(=O)N[C@H]2CC[C@@H]2O)sc1-c1cnc(NC(C)(C)C)cc1C(F)F (relative stereo) [Example 404, 5-(6-(tert-Butylamino)-4-(difluoromethyl)pyridin-3-yl)-N-((1S*,2S*)-2-hydroxycyclobutyl)-4-((S)-2-methylpyrrolidine-1-carbonyl)thiazole-2-carboxamide]",98,15,3.8,
,,"CC[C@H](Nc1cc(C(F)F)c(-c2sc(C(=O)N[C@@H]3CC[C@H]3O)nc2C(=O)N2C3CCC2CC3)cn1)C(F)(F)F (relative stereo) [Example 405, 4-((1s,4s)-7-Azabicyclo[2.2.1]heptane-7-carbonyl)-5-(4-(difluoromethyl)-6-(((S)-1,1,1-trifluorobutan-2-yl)amino)pyridin-3-yl)-N-((1R*,2R*)-2-hydroxycyclobutyl)thiazole-2-carboxamide]",,110,2,95
,,"CC[C@H](Nc1cc(C(F)F)c(-c2sc(C(=O)N[C@H]3CC[C@@H]3O)nc2C(=O)N2C3CCC2CC3)cn1)C(F)(F)F (relative stereo) [Example 406, 4-((1s,4s)-7-Azabicyclo[2.2.1]heptane-7-carbonyl)-5-(4-(difluoromethyl)-6-(((S)-1,1,1-trifluorobutan-2-yl)amino)pyridin-3-yl)-N-((1S*,2S*)-2-hydroxycyclobutyl)thiazole-2-carboxamide]",92,81,2.7,
,,"O=C(N[C@@H]1CC[C@H]1O)c1nc(C(=O)N2C3CCC2CC3)c(-c2cnc(N[C@@H](C3CC3)C(F)(F)F)cc2C(F)F)s1 (relative stereo) [Example 443, 4-((1s,4s)-7-Azabicyclo[2.2.1]heptane-7-carbonyl)-5-(6-(((S)-1-cyclopropyl-2,2,2-trifluoroethyl)amino)-4-(difluoromethyl)pyridin-3-yl)-N-((1R*,2R*)-2-hydroxycyclobutyl)thiazole-2-carboxamide]",,16,2.2,107
,,"O=C(N[C@H]1CC[C@@H]1O)c1nc(C(=O)N2C3CCC2CC3)c(-c2cnc(N[C@@H](C3CC3)C(F)(F)F)cc2C(F)F)s1 (relative stereo) [Example 444, 4-((1s,4s)-7-Azabicyclo[2.2.1]heptane-7-carbonyl)-5-(6-(((S)-1-cyclopropyl-2,2,2-trifluoroethyl)amino)-4-(difluoromethyl)pyridin-3-yl)-N-((1S*,2S*)-2-hydroxycyclobutyl)thiazole-2-carboxamide]",,4.5,2.3,102
89* %,190,"C[C@H](Nc1cc(C(F)F)c(-c2sc(C(=O)N[C@@H]3C[C@H]3O)nc2C(=O)N2CCC[C@@H]2C)cn1)C(F)(F)F (single isomer, unassigned) [Example 157, 5-(4-(Difluoromethyl)-6-(((S)-1,1,1-trifluoropropan-2-yl)amino)pyridin-3-yl)-N-((1R*,2R*)-2-hydroxycyclopropyl)-4-((S)-2-methylpyrrolidine-1-carbonyl)thiazole-2-carboxamide]",,,32,
96* %,310,"C[C@H](Nc1cc(C(F)F)c(-c2sc(C(=O)N[C@H]3C[C@@H]3O)nc2C(=O)N2CCC[C@@H]2C)cn1)C(F)(F)F (single isomer, unassigned) [Example 158, 5-(4-(Difluoromethyl)-6-(((S)-1,1,1-trifluoropropan-2-yl)amino)pyridin-3-yl)-N-((1S*,2S*)-2-hydroxycyclopropyl)-4-((S)-2-methylpyrrolidine-1-carbonyl)thiazole-2-carboxamide]",,,17,
